According to paper PMC7265341, “Quantifying CDK inhibitor selectivity in live cells” (Nature Communications, 2020):
Like-named read-outs stand apart in the source and are kept apart here.

Experiments:
[1] = molecular target: CDK20/Cyclin H (Homo sapiens, UniProt Q8IZL9); assay: NanoBRET live-cell target engagement, NanoLuc-CDK20/Cyclin H in HEK-293; assay type: binding; conditions: 10µM, read-out: CDK20/H Inhibition at 10µM (%)
[2] = molecular target: T1, CDK11A/Cyclin L2 (Homo sapiens, UniProt Q9UQ88); assay: NanoBRET live-cell target engagement, CDK11A-NanoLuc/Cyclin L2 in HEK-293; assay type: binding; conditions: 10µM, read-out: CDK11a/L2 Inhibition at 10µM (%)
T1 sequence (Q9UQ88 1-783): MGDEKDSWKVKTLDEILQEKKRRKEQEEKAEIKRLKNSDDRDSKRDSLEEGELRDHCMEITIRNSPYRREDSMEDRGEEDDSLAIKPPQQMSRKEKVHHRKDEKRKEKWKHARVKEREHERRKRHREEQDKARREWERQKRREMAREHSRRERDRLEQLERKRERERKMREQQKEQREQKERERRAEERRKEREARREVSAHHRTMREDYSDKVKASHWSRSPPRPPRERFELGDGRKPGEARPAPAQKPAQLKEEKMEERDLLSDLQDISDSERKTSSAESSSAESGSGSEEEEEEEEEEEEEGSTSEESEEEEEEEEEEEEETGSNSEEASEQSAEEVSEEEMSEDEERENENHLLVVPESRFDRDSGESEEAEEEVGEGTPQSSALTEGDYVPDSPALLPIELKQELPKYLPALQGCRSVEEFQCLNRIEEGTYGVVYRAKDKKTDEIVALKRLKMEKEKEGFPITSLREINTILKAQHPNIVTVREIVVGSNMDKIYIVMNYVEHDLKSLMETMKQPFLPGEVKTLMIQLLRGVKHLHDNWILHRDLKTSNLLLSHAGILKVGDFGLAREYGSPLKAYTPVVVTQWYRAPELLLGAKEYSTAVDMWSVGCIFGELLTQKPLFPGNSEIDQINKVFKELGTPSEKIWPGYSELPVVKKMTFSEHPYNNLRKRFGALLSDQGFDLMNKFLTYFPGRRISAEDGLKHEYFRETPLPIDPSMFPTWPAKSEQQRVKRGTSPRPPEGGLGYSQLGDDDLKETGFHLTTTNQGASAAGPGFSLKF

[3] = molecular target: CDK1/Cyclin E1 (Homo sapiens, UniProt P06493); assay: NanoBRET live-cell target engagement, CDK1-NanoLuc/Cyclin E1 in HEK-293; assay type: binding; conditions: 10µM, read-out: CDK1/E1 Inhibition at 10µM (%)
[4] = molecular target: CDK5/CDK5R1 (Homo sapiens, UniProt Q00535); assay: NanoBRET live-cell target engagement, CDK5-NanoLuc/CDK5R1 in HEK-293; assay type: binding; conditions: 10µM, read-out: CDK5/CDK5R1 Inhibition at 10µM (%)
[5] = molecular target: CDK9/Cyclin K (Homo sapiens, UniProt P50750); assay: NanoBRET live-cell target engagement, NanoLuc-CDK9/Cyclin K in HEK-293; assay type: binding; conditions: 10µM, read-out: CDK9/K Inhibition at 10µM (%)
[6] = molecular target: CDK6/Cyclin D1 (Homo sapiens, UniProt Q00534); assay: NanoBRET live-cell target engagement, NanoLuc-CDK6/Cyclin D1 in HEK-293; assay type: binding; conditions: 10µM, read-out: CDK6/D1 Inhibition at 10µM (%)
[7] = molecular target: CDK8/Cyclin C (Homo sapiens, UniProt P49336); assay: NanoBRET live-cell target engagement, NanoLuc-CDK8/Cyclin C in HEK-293; assay type: binding; conditions: 10µM, read-out: CDK8/C Inhibition at 10µM (%)
[8] = molecular target: CDK2/Cyclin E1 (Homo sapiens, UniProt P24941); assay: NanoBRET live-cell target engagement, CDK2-NanoLuc/Cyclin E1 in HEK-293; assay type: binding; conditions: 10µM, read-out: CDK2/E1 Inhibition at 10µM (%)
[9] = molecular target: CDK17/Cyclin Y (Homo sapiens, UniProt Q00537); assay: NanoBRET live-cell target engagement, CDK17-NanoLuc/Cyclin Y in HEK-293; assay type: binding; conditions: 10µM, read-out: CDK17/Y Inhibition at 10µM (%)
[10] = molecular target: CDK18/Cyclin Y (Homo sapiens, UniProt Q07002); assay: NanoBRET live-cell target engagement, CDK18-NanoLuc/Cyclin Y in HEK-293; assay type: binding; conditions: 10µM, read-out: CDK18/Y Inhibition at 10µM (%)
[11] = molecular target: CDK12/Cyclin K (Homo sapiens, UniProt Q9NYV4); assay: NanoBRET live-cell target engagement, CDK12-NanoLuc/Cyclin K in HEK-293; assay type: binding; conditions: for inhibition at 10 µM: read-out: CDK12/K Inhibition at 10µM (%)
[12] = molecular target: CDK4/Cyclin D1 (Homo sapiens, UniProt P11802); assay: NanoBRET live-cell target engagement, NanoLuc-CDK4/Cyclin D1 in HEK-293; assay type: binding; conditions: 10µM, read-out: CDK4/D1 Inhibition at 10µM (%)
[13] = molecular target: CDK19/Cyclin C (Homo sapiens, UniProt Q9BWU1); assay: NanoBRET live-cell target engagement, NanoLuc-CDK19/Cyclin C in HEK-293; conditions: read-out: CDK19/C Inhibition at 10µM (%), 10µM
[14] = molecular target: CDK11B/Cyclin L2 (Homo sapiens, UniProt P21127); assay: NanoBRET live-cell target engagement, CDK11B-NanoLuc/Cyclin L2 in HEK-293; assay type: binding; conditions: 10µM, read-out: CDK11b/L2 Inhibition at 10µM (%)
[15] = molecular target: CDK10/Cyclin L2 (Homo sapiens, UniProt Q15131); assay: NanoBRET live-cell target engagement, CDK10-NanoLuc/Cyclin L2 in HEK-293; conditions: read-out: CDK10/L2 Inhibition at 10µM (%), 10µM
[16] = molecular target: CDK13/Cyclin K (Homo sapiens, UniProt Q14004); assay: NanoBRET live-cell target engagement, CDK13-NanoLuc/Cyclin K in HEK-293; assay type: binding; conditions: for inhibition at 10 µM: read-out: CDK13/K Inhibition at 10µM (%)
[17] = molecular target: CDK3/Cyclin E1 (Homo sapiens, UniProt Q00526); assay: NanoBRET live-cell target engagement, CDK3-NanoLuc/Cyclin E1 in HEK-293; assay type: binding; conditions: 10µM, read-out: CDK3/E1 Inhibition at 10µM (%)
[18] = molecular target: CDK16/Cyclin Y (Homo sapiens, UniProt Q00536); assay: NanoBRET live-cell target engagement, CDK16-NanoLuc/Cyclin Y in HEK-293; assay type: binding; conditions: 10µM, read-out: CDK16/Y Inhibition at 10µM (%)
[19] = molecular target: CDK15/Cyclin Y (Homo sapiens, UniProt Q96Q40); assay: NanoBRET live-cell target engagement, NanoLuc-CDK15/Cyclin Y in HEK-293; assay type: binding; conditions: 10µM, read-out: CDK15/Y Inhibition at 10µM (%)

Sequence of CDK6/Cyclin D1 (Q00534 whole entry): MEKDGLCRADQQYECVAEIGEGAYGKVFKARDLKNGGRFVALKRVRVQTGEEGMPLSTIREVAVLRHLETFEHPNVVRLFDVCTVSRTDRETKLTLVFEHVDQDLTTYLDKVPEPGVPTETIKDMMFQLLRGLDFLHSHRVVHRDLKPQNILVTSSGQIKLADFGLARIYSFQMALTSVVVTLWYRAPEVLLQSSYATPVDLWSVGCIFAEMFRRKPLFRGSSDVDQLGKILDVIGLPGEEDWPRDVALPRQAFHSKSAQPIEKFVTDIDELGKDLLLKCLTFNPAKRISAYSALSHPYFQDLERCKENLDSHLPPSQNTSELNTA
Sequence of CDK6/Cyclin D1 (P24385 whole entry partner): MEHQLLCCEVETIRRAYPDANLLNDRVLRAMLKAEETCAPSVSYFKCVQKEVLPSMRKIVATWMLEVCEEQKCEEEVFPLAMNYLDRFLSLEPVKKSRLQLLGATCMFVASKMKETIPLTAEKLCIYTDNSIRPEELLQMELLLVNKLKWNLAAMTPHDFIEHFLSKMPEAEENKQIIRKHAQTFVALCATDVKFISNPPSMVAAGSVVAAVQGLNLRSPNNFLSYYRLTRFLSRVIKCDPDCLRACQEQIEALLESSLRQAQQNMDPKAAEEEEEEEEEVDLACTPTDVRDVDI
Sequence of CDK4/Cyclin D1 (P11802 whole entry): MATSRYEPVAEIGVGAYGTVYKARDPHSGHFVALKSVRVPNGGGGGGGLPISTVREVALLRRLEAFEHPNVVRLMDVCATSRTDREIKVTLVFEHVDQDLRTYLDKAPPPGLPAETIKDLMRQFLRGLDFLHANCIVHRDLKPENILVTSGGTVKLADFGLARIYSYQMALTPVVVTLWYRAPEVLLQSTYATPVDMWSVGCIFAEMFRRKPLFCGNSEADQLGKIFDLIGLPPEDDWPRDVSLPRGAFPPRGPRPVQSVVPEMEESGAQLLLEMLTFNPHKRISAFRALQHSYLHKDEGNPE
Sequence of CDK4/Cyclin D1 (P24385 whole entry partner): as the sequence (P24385 whole entry partner) above
Sequence of CDK9/Cyclin K (P50750 whole entry): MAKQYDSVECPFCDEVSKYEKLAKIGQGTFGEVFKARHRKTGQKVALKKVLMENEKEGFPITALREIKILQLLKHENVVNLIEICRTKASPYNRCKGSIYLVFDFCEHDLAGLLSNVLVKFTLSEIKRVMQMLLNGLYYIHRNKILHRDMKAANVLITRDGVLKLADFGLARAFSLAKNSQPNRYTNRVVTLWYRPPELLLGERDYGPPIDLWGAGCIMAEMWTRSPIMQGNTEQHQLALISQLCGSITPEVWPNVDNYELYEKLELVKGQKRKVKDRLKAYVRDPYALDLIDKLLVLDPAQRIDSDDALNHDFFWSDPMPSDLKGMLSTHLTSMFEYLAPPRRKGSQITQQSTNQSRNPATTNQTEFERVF
Sequence of CDK9/Cyclin K (O75909 whole entry partner): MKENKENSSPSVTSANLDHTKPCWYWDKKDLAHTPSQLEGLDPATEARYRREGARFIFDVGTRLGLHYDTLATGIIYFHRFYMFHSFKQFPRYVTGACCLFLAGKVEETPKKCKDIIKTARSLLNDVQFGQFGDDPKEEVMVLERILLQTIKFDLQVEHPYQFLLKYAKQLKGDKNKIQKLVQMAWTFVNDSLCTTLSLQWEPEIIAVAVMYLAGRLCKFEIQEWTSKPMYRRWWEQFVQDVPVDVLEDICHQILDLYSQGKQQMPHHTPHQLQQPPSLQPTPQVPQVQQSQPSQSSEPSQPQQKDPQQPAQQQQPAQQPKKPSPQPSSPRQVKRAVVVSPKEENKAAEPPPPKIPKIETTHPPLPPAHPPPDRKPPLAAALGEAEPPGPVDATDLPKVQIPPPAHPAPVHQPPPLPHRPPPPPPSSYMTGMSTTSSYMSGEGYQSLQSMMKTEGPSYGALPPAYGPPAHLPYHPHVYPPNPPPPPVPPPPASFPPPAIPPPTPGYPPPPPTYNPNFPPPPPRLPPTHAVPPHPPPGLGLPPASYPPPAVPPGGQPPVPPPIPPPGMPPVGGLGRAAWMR
Sequence of CDK3/Cyclin E1 (Q00526 whole entry): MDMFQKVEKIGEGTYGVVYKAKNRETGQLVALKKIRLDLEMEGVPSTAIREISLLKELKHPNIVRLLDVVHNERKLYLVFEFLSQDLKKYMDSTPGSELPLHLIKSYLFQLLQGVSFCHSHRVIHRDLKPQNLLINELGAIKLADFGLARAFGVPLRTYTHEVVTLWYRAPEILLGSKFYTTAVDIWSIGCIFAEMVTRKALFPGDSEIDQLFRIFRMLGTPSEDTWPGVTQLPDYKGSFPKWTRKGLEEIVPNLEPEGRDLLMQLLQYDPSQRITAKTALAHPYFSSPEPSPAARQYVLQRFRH
Sequence of CDK3/Cyclin E1 (P24864 whole entry partner): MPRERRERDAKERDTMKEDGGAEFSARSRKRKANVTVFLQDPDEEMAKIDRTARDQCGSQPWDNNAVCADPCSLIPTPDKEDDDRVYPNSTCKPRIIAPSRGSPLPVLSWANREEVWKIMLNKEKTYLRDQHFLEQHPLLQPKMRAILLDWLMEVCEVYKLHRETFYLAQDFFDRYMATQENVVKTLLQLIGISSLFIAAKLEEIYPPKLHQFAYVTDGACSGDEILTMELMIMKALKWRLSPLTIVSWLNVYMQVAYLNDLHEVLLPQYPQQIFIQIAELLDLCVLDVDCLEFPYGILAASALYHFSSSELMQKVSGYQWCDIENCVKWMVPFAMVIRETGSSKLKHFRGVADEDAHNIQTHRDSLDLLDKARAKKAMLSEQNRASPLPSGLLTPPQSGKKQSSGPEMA
Sequence of CDK13/Cyclin K (O75909 whole entry): as the sequence (O75909 whole entry partner) above
Sequence of CDK13/Cyclin K (Q14004 other isoform, or with tags, fused parts or gaps): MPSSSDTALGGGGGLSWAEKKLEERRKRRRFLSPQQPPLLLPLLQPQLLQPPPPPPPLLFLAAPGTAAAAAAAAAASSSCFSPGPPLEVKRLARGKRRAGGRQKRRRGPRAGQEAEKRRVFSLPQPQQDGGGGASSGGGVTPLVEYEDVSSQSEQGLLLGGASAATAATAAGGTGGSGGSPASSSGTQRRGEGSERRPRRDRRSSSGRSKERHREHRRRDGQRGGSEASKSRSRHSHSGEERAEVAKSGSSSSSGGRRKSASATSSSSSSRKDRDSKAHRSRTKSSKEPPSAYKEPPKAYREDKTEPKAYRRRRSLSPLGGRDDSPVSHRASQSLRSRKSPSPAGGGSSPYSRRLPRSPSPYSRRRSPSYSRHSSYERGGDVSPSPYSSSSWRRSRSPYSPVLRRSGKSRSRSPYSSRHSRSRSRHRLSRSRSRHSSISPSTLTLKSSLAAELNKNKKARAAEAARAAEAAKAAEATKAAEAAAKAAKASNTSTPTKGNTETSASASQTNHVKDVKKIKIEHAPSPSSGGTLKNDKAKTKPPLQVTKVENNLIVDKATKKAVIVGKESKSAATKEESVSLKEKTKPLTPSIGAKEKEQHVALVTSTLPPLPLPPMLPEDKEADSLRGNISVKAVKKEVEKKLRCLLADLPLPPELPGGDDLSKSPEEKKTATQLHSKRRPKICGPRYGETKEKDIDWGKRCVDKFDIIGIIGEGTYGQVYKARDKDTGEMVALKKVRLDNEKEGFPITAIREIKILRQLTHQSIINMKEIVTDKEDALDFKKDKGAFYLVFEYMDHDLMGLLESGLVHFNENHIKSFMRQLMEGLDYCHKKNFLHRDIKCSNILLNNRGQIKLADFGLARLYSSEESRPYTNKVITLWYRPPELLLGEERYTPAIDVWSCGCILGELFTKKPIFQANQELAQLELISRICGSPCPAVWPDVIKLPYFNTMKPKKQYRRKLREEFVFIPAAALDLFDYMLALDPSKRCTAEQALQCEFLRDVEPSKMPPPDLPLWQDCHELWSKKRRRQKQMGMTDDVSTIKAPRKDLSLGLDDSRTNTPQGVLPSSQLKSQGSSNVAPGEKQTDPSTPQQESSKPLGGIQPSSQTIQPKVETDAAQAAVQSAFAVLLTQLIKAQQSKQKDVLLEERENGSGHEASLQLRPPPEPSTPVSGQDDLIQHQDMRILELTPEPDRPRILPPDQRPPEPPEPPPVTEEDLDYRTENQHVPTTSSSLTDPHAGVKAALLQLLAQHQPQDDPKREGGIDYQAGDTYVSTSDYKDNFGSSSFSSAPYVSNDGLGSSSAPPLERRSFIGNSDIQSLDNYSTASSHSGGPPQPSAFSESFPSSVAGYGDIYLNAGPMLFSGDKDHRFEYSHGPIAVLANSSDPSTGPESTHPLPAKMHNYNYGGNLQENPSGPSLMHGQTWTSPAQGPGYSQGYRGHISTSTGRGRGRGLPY
Sequence of CDK10/Cyclin L2 (Q15131 whole entry): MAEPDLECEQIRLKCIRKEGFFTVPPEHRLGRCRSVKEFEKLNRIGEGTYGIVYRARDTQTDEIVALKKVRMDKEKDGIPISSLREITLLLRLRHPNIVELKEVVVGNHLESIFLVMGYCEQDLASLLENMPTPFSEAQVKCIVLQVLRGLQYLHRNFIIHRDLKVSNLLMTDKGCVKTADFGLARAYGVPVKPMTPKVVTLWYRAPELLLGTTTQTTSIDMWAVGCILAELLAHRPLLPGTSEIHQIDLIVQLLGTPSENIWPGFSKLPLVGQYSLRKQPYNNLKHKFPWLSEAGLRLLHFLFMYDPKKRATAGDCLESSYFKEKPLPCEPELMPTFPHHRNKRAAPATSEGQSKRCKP
Sequence of CDK1/Cyclin E1 (P06493 whole entry): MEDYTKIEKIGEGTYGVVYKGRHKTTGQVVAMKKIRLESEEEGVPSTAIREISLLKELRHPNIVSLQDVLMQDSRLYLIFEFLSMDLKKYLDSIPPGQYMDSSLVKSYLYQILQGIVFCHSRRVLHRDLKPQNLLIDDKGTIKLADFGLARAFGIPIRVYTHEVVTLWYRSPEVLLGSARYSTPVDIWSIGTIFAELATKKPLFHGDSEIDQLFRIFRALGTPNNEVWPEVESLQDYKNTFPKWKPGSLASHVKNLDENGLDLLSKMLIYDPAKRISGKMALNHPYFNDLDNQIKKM
Sequence of CDK1/Cyclin E1 (P24864 whole entry partner): as the sequence (P24864 whole entry partner) above

Structure (SMILES): CN(C)C/C=C/C(=O)Nc1ccc(C(=O)N2CCC[C@@H](Nc3ncc(Cl)c(-c4c[nH]c5ccccc45)n3)C2)cc1 [THZ531]
- inhibition at 10 µM ([1]; independent experiment 1): 30.9%
- inhibition at 10 µM ([1]; independent experiment 2): 52.4%
- inhibition at 10 µM ([2]; average of experiments): 46.9%
- inhibition at 10 µM ([2]; independent experiment 1): 27.8%
- inhibition at 10 µM ([2]; independent experiment 2): 65.9%
- inhibition at 10 µM ([3]; average of experiments): 61.4%
- inhibition at 10 µM ([3]; independent experiment 1): 48.6%
- inhibition at 10 µM ([3]; independent experiment 2): 74.1%
- inhibition at 10 µM ([4]; average of experiments): 45.3%
- inhibition at 10 µM ([4]; independent experiment 1): 30.8%
- inhibition at 10 µM ([4]; independent experiment 2): 59.9%
- inhibition at 10 µM ([5]; average of experiments): 81.1%
- inhibition at 10 µM ([5]; independent experiment 1): 78.5%
- inhibition at 10 µM ([5]; independent experiment 2): 83.8%
- inhibition at 10 µM ([6]; average of experiments): 36.6%
- inhibition at 10 µM ([6]; independent experiment 1): 32%
- inhibition at 10 µM ([6]; independent experiment 2): 41.3%
- inhibition at 10 µM ([7]; average of experiments): 41%
- inhibition at 10 µM ([7]; independent experiment 1): 30.9%
- inhibition at 10 µM ([7]; independent experiment 2): 51.2%
- inhibition at 10 µM ([8]; average of experiments): 52.7%
- inhibition at 10 µM ([8]; independent experiment 1): 46.1%
- inhibition at 10 µM ([8]; independent experiment 2): 59.3%
- inhibition at 10 µM ([9]; average of experiments): 63%
- inhibition at 10 µM ([9]; independent experiment 1): 73.4%
- inhibition at 10 µM ([9]; independent experiment 2): 52.6%
- inhibition at 10 µM ([10]; average of experiments): 64.6%
- inhibition at 10 µM ([10]; independent experiment 1): 71.7%
- inhibition at 10 µM ([10]; independent experiment 2): 57.6%
- inhibition at 10 µM ([11]; average of experiments): 65.1%
- inhibition at 10 µM ([11]; independent experiment 1): 75.9%
- inhibition at 10 µM ([11]; independent experiment 2): 54.3%
- IC50 ([11]; independent experiment 1, read-out: CDK12/K IC50): 540 nM
- IC50 ([11]; independent experiment 2, read-out: CDK12/K IC50): 1000 nM
- IC50 ([11]; live HEK-293, 2 h, mean ± S.E.M. (n=3) or mean (n=2), read-out: IC50 for CDK/cyclin complexes, CDK12/K): 770 nM
- IC50 ([11]; live HEK-293, read-out: CDK12 engagement potency): < 1000 nM
- CDK12 occupancy at 10 µM ([11]; primary screen, live HEK-293): occupied
- receptor occupancy at 10 µM ([11]; read-out: CDK12 occupancy at 10 µM): ~50%
- inhibition at 10 µM ([12]; average of experiments): 54.6%
- inhibition at 10 µM ([12]; independent experiment 1): 47.7%
- inhibition at 10 µM ([12]; independent experiment 2): 61.5%
- inhibition at 10 µM ([13]; average of experiments): 55.3%
- inhibition at 10 µM ([13]; independent experiment 1): 58.1%
- inhibition at 10 µM ([13]; independent experiment 2): 52.6%
- inhibition at 10 µM ([14]; average of experiments): 32.4%
- inhibition at 10 µM ([14]; independent experiment 1): 30%
- inhibition at 10 µM ([14]; independent experiment 2): 34.7%
- inhibition at 10 µM ([15]; average of experiments): 51%
- inhibition at 10 µM ([15]; independent experiment 1): 41.2%
- inhibition at 10 µM ([15]; independent experiment 2): 60.7%
- inhibition at 10 µM ([16]; average of experiments): 53.1%
- inhibition at 10 µM ([16]; independent experiment 1): 48.6%
- inhibition at 10 µM ([16]; independent experiment 2): 57.6%
- IC50 ([16]; live HEK-293, response to reviewers, read-out: CDK13 IC50 (follow up)): ~2000 nM
- CDK13 occupancy at 10 µM ([16]; primary screen, live HEK-293): occupied
- receptor occupancy at 10 µM ([16]; primary screen, live HEK-293): ~50%
- inhibition at 10 µM ([17]; average of experiments): 61.1%
- inhibition at 10 µM ([17]; independent experiment 1): 57.1%
- inhibition at 10 µM ([17]; independent experiment 2): 65.2%
- inhibition at 10 µM ([18]; independent experiment 1): 75.1%
- inhibition at 10 µM ([18]; independent experiment 2): 49.9%
- inhibition at 10 µM ([19]; average of experiments): 80.5%
- inhibition at 10 µM ([19]; independent experiment 1): 75.6%
- inhibition at 10 µM ([19]; independent experiment 2): 85.5%
